The experiment relates to mouse pain model. In words: mouse pain model, acetic acid-induced writhing. Type of experiment: in vivo, Male Kunming mice. The conditions noted are these: Tramadol Hydrochloride 50mg/kg, 1% acetic acid intraperitoneally, writhing within 15 minutes. As to the method: • Animals: Male Kunming mice; • Drugs: Tramadol Hydrochloride Sustained Release Tablets, Glacial acetic acid, YK93-2; • Instruments: electronic balance, timer
• Normal control group; • Positive control group: Tramadol Hydrochloride group; • Protein YK93-2, (2g/kg) group.
Mice in the YK93-2 (2g/kg) group were administered by gavage, while mice in the model group were given an equal volume of CMC-Na once a day for 7 consecutive days. 30 minutes after the last administration, 1% acetic acid was administered intraperitoneally, and the writhing times of mice within 15 minutes was recorded, and the inhibition rate of drug-induced writhing reaction was calculated. The observation criteria were concave abdominal cavity, extended hind limbs, and raised buttocks.
The inhibition rate was calculated by (Mean number of writhing reactions in the normal control group - Mean number of writhing reactions in the treatment group)/Mean number of writhing reactions in the normal control group * 100%.

Structures can show the parent of a compound that is named as a salt.

We go through one compound from patent EP4600261A1, “KERATIN YK93-2, AND PREPARATION METHOD THEREFOR, PHARMACEUTICAL COMPOSITION THEREOF AND USE THEREOF” (INSTITUTE OF MATERIA MEDICA, CHINESE ACADEMY OF MEDICAL …, priority 2022, dated 2024).

Consider `COc1cccc(C2(O)CCCCC2CN(C)C)c1` (stereo not shown) [Tramadol Hydrochloride], for which the Number of writhing result was “significantly reduced”.
